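Each compound was tested at five concentrations against cells in 96-well plates for 48 hours. GI50 marks 50% less growth.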 Active and inactive are the calls of the source. No stated cut-off is given here; in the data, active = GI50 up to about 1.1 µM and inactive = higher.
Tests used:
Test in all cases: NCI tumour cell line growth inhibition, 48 h
DU-145 = system: DU-145
HCT-116 = system: HCT-116
HOP-92 = system: HOP-92
K562 = system: K562
M14 = system: M14
NCI-H460 = system: NCI-H460
NCI/ADR-RES = system: NCI/ADR-RES
OVCAR-5 = system: OVCAR-5
OVCAR-8 = system: OVCAR-8
RPMI-8226 = system: RPMI-8226
RXF 393 = system: RXF 393
SF-295 = system: SF-295
SF-539 = system: SF-539
SK-MEL-2 = system: SK-MEL-2
SK-OV-3 = system: SK-OV-3
SNB-75 = system: SNB-75
SW-620 = system: SW-620
UACC-62 = system: UACC-62
EKVX = system: EKVX
Malme-3M = system: Malme-3M

| Structure (SMILES) | GI50 (DU-145) | GI50 (HCT-116) | GI50 (HOP-92) | GI50 (K562) | GI50 (M14) | GI50 (NCI-H460) | GI50 (NCI/ADR-RES) | GI50 (OVCAR-5) | GI50 (OVCAR-8) | GI50 (RPMI-8226) | GI50 (RXF 393) | GI50 (SF-295) | GI50 (SF-539) | GI50 (SK-MEL-2) | GI50 (SK-OV-3) | GI50 (SNB-75) | GI50 (SW-620) | GI50 (UACC-62) | GI50 (EKVX) | GI50 (Malme-3M) |
| --- | --- | --- | --- | --- | --- | --- | --- | --- | --- | --- | --- | --- | --- | --- | --- | --- | --- | --- | --- | --- |
| COC(=O)C(=O)C(C(=O)C(=O)Nc1ccc([N+](=O)[O-])cc1[N+](=O)[O-])c1nc2ccc(Cl)cc2nc1O (configuration not stated) | > 100 µM (inactive) | > 100 µM (inactive) | > 100 µM (inactive) | > 100 µM (inactive) | > 100 µM (inactive) | > 100 µM (inactive) | 87.3 µM (inactive) | > 100 µM (inactive) | > 100 µM (inactive) | > 100 µM (inactive) | 65.3 µM (inactive) | > 100 µM (inactive) | > 100 µM (inactive) | > 100 µM (inactive) | > 100 µM (inactive) | 16.5 µM (inactive) | > 100 µM (inactive) | > 100 µM (inactive) | – | – |
| CC(C)CC(Nc1c(O)ccc2ccccc12)C(=O)O (configuration not stated) | 19.2 µM (inactive) | 27.9 µM (inactive) | – | 58.7 µM (inactive) | 37.8 µM (inactive) | 35.2 µM (inactive) | 37.8 µM (inactive) | 80.7 µM (inactive) | – | 28.2 µM (inactive) | 12.9 µM (inactive) | 20.5 µM (inactive) | 16.7 µM (inactive) | 17.1 µM (inactive) | 27.2 µM (inactive) | 32.3 µM (inactive) | 34.4 µM (inactive) | 23.8 µM (inactive) | 17.3 µM (inactive) | 15.2 µM (inactive) |
| N=c1oc2ccc3ccccc3c2cc1C(N)=O | 71 µM (inactive) | 36.9 µM (inactive) | 53 µM (inactive) | – | 55.5 µM (inactive) | 46.3 µM (inactive) | 35.5 µM (inactive) | > 100 µM (inactive) | 80.5 µM (inactive) | > 100 µM (inactive) | > 100 µM (inactive) | – | – | 19.4 µM (inactive) | 96.2 µM (inactive) | 71.9 µM (inactive) | 44 µM (inactive) | 28 µM (inactive) | – | – |
| CC(=O)OCC1OC(n2c(C)c(/N=N/c3ccccc3)c(C)c(C#N)c2=S)C(OC(C)=O)C(OC(C)=O)C1OC(C)=O (configuration not stated) | 83.4 µM (inactive) | 16.9 µM (inactive) | 8.99 µM (inactive) | > 100 µM (inactive) | 33.7 µM (inactive) | 39.8 µM (inactive) | 55.3 µM (inactive) | 86.9 µM (inactive) | – | > 100 µM (inactive) | 14.4 µM (inactive) | 15 µM (inactive) | 58.7 µM (inactive) | 24.9 µM (inactive) | 22.6 µM (inactive) | 1.85 µM (inactive) | > 100 µM (inactive) | 14.8 µM (inactive) | – | 46.3 µM (inactive) |
| Cc1ccc(-c2nc3n(c2/C=N\N=C(N)N)CCS3)cc1 | 13.8 µM (inactive) | 14.8 µM (inactive) | 19.4 µM (inactive) | 19.8 µM (inactive) | – | 18 µM (inactive) | 29.9 µM (inactive) | 16.3 µM (inactive) | 15.6 µM (inactive) | 32.8 µM (inactive) | 15.8 µM (inactive) | 12.2 µM (inactive) | 15.2 µM (inactive) | 12.9 µM (inactive) | 15.3 µM (inactive) | 10.9 µM (inactive) | 15.7 µM (inactive) | 18.1 µM (inactive) | 16 µM (inactive) | 17.3 µM (inactive) |
| CCCc1c(O)c(=O)c2c(OC)cc(OC)c3c4c(OC)cc(OC)c5c(=O)c(O)c(CCC)c(c1c23)c54 | 0.37 µM (active) | 0.299 µM (active) | 0.681 µM (active) | 0.195 µM (active) | 0.755 µM (active) | 0.301 µM (active) | 0.9 µM (active) | 2.13 µM (inactive) | 0.513 µM (active) | 0.192 µM (active) | 2.79 µM (inactive) | 0.37 µM (active) | 0.361 µM (active) | 0.507 µM (active) | 0.342 µM (active) | 0.183 µM (active) | 1.13 µM (inactive) | 0.396 µM (active) | 1.06 µM (active) | – |
| O=C1/C(=N\NC(=S)Nc2ccc(Cl)cc2)c2cc([N+](=O)[O-])ccc2N1CN1CCOCC1 | 10.5 µM (inactive) | 4.12 µM (inactive) | 8.47 µM (inactive) | – | 10.1 µM (inactive) | 7.78 µM (inactive) | 2.2 µM (inactive) | – | 5.6 µM (inactive) | – | 7.19 µM (inactive) | 4.97 µM (inactive) | 11.3 µM (inactive) | 13.2 µM (inactive) | 12.6 µM (inactive) | 12.8 µM (inactive) | 4.37 µM (inactive) | 5.31 µM (inactive) | – | 6.17 µM (inactive) |
| CC(=O)OCC(OC(C)=O)C1C[C@H]2O[C@@H]3[C@H](C[C@H]2O1)O[C@@]1(C[C@@H]3C)C[C@H](C)[C@@H]2O[C@]3(C[C@@H]2O1)C[C@H]1O[C@H]2[C@H](C)[C@H]4OC(=O)CC5CC[C@H]6OC7[C@H]8O[C@]9(CC[C@H]%10CC(O)(CO)[C@H](CC[C@H]%11C[C@@H](C)C(O)(CO)C(C[C@@H]4O[C@H]2C[C@H]1O3)O%11)O%10)CC8O[C@@H]7[C@@H](O9)[C@H]6O5 (some centres not stated) | 0.00386 µM (active) | 0.00438 µM (active) | 0.0504 µM (active) | 0.00116 µM (active) | 0.00935 µM (active) | 0.00371 µM (active) | 0.0201 µM (active) | > 0.27 µM (active) | 0.0121 µM (active) | 0.00282 µM (active) | 0.00253 µM (active) | 0.0043 µM (active) | – | 0.116 µM (active) | 0.0284 µM (active) | 0.00308 µM (active) | 0.00492 µM (active) | 0.00305 µM (active) | 0.0234 µM (active) | 0.00297 µM (active) |

— ChEMBL document CHEMBL1201862, “PubChem BioAssay data set” (2004)
